Measured values published in PMC12401824, “Studies on the impact of modifications at the Gln-Trp site in RM2-based GRPR ligands” (EJNMMI Research, 2025).
Read-outs that look alike come from different tables or passages of the source. Starred links: 1 amine or outer side, 2 acyl side, 3 side chain; linkers in the order of their positions; H or OH if unused. Non-standard residues stand in square brackets, D forms with d. Residues, ends and D or L forms follow the SMILES beside them. *: point of attachment. DOTA = O=C(O)CN1CCN(CC(=O)O)CCN(CC(=O)*)CCN(CC(=O)O)CC1; Sta = CC(C)C[C@H](N)[C@@H](O)CC(=O)O; Bta = N[C@@H](Cc1csc2ccccc12)C(=O)O; X1 = O=C(CN1CCC(N[*:1])CC1)[*:2]; hSer = N[C@@H](CCO)C(=O)O

Columns and labels:
[1] = system: PC-3 tumor xenograft; assay: Biodistribution in PC-3 tumor-bearing CB17-SCID mice; type: in vivo; details: ^68Ga-labeled; 1 h p.i.; n = 4
Procedure: (§1) To establish tumor xenografts, PC-3 cells (5.0 × 10^6 cells per 200 µL) were suspended in a 1/1 mixture (v/v) of Dulbecco’s modified eagle's medium/Ham’s F-12 with Glutamax-I (v/v = 1/1) and Cultrex® Basement Membrane Matrix Type 3 (Trevigen Inc., Gaithersburg, MD, USA) and inoculated subcutaneously onto the right shoulder of CB17-SCID mice (Charles River Laboratories International Inc., Sulzfeld, Germany). Mice (n = 4) were used for experiments when tumor volume has reached 125–500 mm^3 (2–3 weeks after inoculation).
(§2) Biodistribution. […] (n = 4), respectively. Selected organs were removed, weighted and measured in a γ-counter.

[2] = as above; type: in vivo; details: mouse, 100 pmol, ^68Ga-labeled, 1 h p.i., n = 4; for tissue to tissue ratio at 1 h: CB17-SCID, iv, total radioactivity; for tissue uptake at 1 h: intravenous
Procedure: as §1, §2

[3] = tumor and blood, read-out: Tumor-to-Blood ratio
[4] = tumor and bone, read-out: Tumor-to-Bone ratio
[5] = tumor and heart, read-out: Tumor-to-Heart ratio
[6] = tumor and intestine, read-out: Tumor-to-Intestine ratio
[7] = tumor and kidney, read-out: Tumor-to-Kidney ratio
[8] = tumor and liver, read-out: Tumor-to-Liver ratio
[9] = tumor and lung, read-out: Tumor-to-Lung ratio
[10] = tumor and muscle, read-out: Tumor-to-Muscle ratio
[11] = tumor and pancreas, read-out: Tumor-to-Pancreas ratio
[12] = tumor and spleen, read-out: Tumor-to-Spleen ratio
[13] = tumor and stomach, read-out: Tumor-to-Stomach ratio
[14] = adrenal, read-out: Uptake in Adrenal
[15] = blood, read-out: Uptake in Blood
[16] = heart, read-out: Uptake in Heart
[17] = intestine, read-out: Uptake in Intestine
[18] = kidney, read-out: Uptake in Kidney
[19] = liver, read-out: Uptake in Liver
[20] = muscle, read-out: Uptake in Muscle
[21] = pancreas, read-out: Uptake in Pancreas
[22] = spleen, read-out: Uptake in Spleen
[23] = stomach, read-out: Uptake in Stomach
[24] = tumor, read-out: Uptake in Tumor

| SMILES | Tumor-to-Adrenal ratio [1] | tissue to tissue ratio at 1 h [2, 3] | tissue to tissue ratio at 1 h [2, 4] | tissue to tissue ratio at 1 h [2, 5] | tissue to tissue ratio at 1 h [2, 6] | tissue to tissue ratio at 1 h [2, 7] | tissue to tissue ratio at 1 h [2, 8] | tissue to tissue ratio at 1 h [2, 9] | tissue to tissue ratio at 1 h [2, 10] | tissue to tissue ratio at 1 h [2, 11] | tissue to tissue ratio at 1 h [2, 12] | tissue to tissue ratio at 1 h [2, 13] | tissue uptake at 1 h [2, 14] | tissue uptake at 1 h [2, 15] | tissue uptake at 1 h ([2]; bone, read-out: Uptake in Bone) | tissue uptake at 1 h [2, 16] | tissue uptake at 1 h [2, 17] | tissue uptake at 1 h [2, 18] | tissue uptake at 1 h [2, 19] | tissue uptake at 1 h ([2]; lung, read-out: Uptake in Lung) | other results |
| --- | --- | --- | --- | --- | --- | --- | --- | --- | --- | --- | --- | --- | --- | --- | --- | --- | --- | --- | --- | --- | --- |
| CC(C)C[C@H](NC(=O)C[C@H](O)[C@H](CC(C)C)NC(=O)[C@H](Cc1c[nH]cn1)NC(=O)CNC(=O)[C@@H](NC(=O)[C@H](C)NC(=O)[C@H](Cc1csc2ccccc12)NC(=O)[C@H](CCC(N)=O)NC(=O)[C@@H](Cc1ccccc1)NC(=O)CN1CCC(NC(=O)CN2CCN(CC(=O)O)CCN(CC(=O)O)CCN(CC(=O)O)CC2)CC1)C(C)C)C(N)=O [[^68Ga]Ga-[Bta^8]RM2, metal not drawn] ({DOTA}-[X1][dF]Q[Bta]AVGH[Sta]L-NH2) | 13.3 ± 17.2 | 7.6 ± 2.6 | 29.5 ± 8.2 | 19.8 ± 5 | 12.2 ± 4.5 | 3.3 ± 0.6 | 10.7 ± 2.3 | 8.8 ± 3 | 50.6 ± 19.4 | 1.9 ± 1.3 | 18.7 ± 6.9 | 7.1 ± 0.7 | 1.95 ± 1.3 %ID/g | 1.07 ± 0.27 %ID/g | 0.3 ± 0.15 %ID/g | 0.4 ± 0.1 %ID/g | 0.66 ± 0.14 %ID/g | 2.33 ± 0.25 %ID/g | 0.73 ± 0.17 %ID/g | 0.92 ± 0.22 %ID/g | tissue uptake at 1 h [2, 20]: 0.19 ± 0.11 %ID/g; tissue uptake at 1 h [2, 21]: < 8 %ID/g; tissue uptake at 1 h [2, 22]: 0.46 ± 0.16 %ID/g; tissue uptake at 1 h [2, 23]: 1.07 ± 0.14 %ID/g; tissue uptake at 1 h [2, 24]: ~7.5 %ID/g |
| CC(C)C[C@H](NC(=O)C[C@H](O)[C@H](CC(C)C)NC(=O)[C@H](Cc1c[nH]cn1)NC(=O)CNC(=O)[C@@H](NC(=O)[C@H](C)NC(=O)[C@H](Cc1c[nH]c2ccccc12)NC(=O)[C@H](CCO)NC(=O)[C@@H](Cc1ccccc1)NC(=O)CN1CCC(NC(=O)CN2CCN(CC(=O)O)CCN(CC(=O)O)CCN(CC(=O)O)CC2)CC1)C(C)C)C(N)=O [[^68Ga]Ga-[Hse^7]RM2, metal not drawn] ({DOTA}-[X1][dF][hSer]WAVGH[Sta]L-NH2) | 1.4 ± 1.1 | 1.9 ± 0.1 | 7.8 ± 0.7 | 6 ± 0.9 | 5 ± 0.3 | 2.2 ± 0.2 | 5.1 ± 0.5 | 3.3 ± 0.6 | 22.8 ± 3.4 | 0.9 ± 0.1 | 5 ± 0.7 | 4.1 ± 0.3 | 2.47 ± 0.3 %ID/g | 3.92 ± 0.07 %ID/g | 0.98 ± 0.12 %ID/g | 1.29 ± 0.14 %ID/g | 1.52 ± 0.1 %ID/g | 3.51 ± 0.2 %ID/g | 1.49 ± 0.06 %ID/g | 2.33 ± 0.28 %ID/g | tissue uptake at 1 h [2, 20]: 0.34 ± 0.04 %ID/g; tissue uptake at 1 h [2, 21]: < 8 %ID/g; tissue uptake at 1 h [2, 22]: 1.55 ± 0.15 %ID/g; tissue uptake at 1 h [2, 23]: 1.88 ± 0.06 %ID/g; tissue uptake at 1 h [2, 24]: ~7.5 %ID/g |
